In PubChem BioAssay (NCI):
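GI50 = concentration required for 50% inhibition of growth. Definition used: TGI = concentration required for complete inhibition of growth.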

How the values were obtained:
Experiment in all cases: NCI anticancer screen, dose series, 384-well format
CAKI-1 renal = tested on: CAKI-1 renal
T-47D breast = tested on: T-47D breast
SN12C renal = tested on: SN12C renal
SF-295 CNS = tested on: SF-295 CNS
HT29 colon = tested on: HT29 colon
OVCAR-5 ovarian = tested on: OVCAR-5 ovarian
OVCAR-4 ovarian = tested on: OVCAR-4 ovarian
EKVX NSCLC = tested on: EKVX NSCLC
HCC-2998 colon = tested on: HCC-2998 colon
TK-10 renal = tested on: TK-10 renal
U251 glioblastoma = tested on: U251 glioblastoma
KM12 colon = tested on: KM12 colon
786-0 renal = tested on: 786-0 renal
HCT-15 colon = tested on: HCT-15 colon
SNB-75 CNS = tested on: SNB-75 CNS
OVCAR-8 ovarian = tested on: OVCAR-8 ovarian
NCI/ADR-RES ovarian = tested on: NCI/ADR-RES ovarian
MDA-MB-231 breast = tested on: MDA-MB-231 breast
COLO 205 colon = tested on: COLO 205 colon
MCF7 breast = tested on: MCF7 breast
HS 578T breast = tested on: HS 578T breast
HOP-62 NSCLC = tested on: HOP-62 NSCLC
SK-MEL-28 melanoma = tested on: SK-MEL-28 melanoma
LOX IMVI melanoma = tested on: LOX IMVI melanoma
NCI-H23 lung = tested on: NCI-H23 lung
NCI-H322M lung = tested on: NCI-H322M lung
MDA-MB-435 melanoma = tested on: MDA-MB-435 melanoma
SF-268 CNS = tested on: SF-268 CNS
UACC-62 melanoma = tested on: UACC-62 melanoma
ACHN renal = tested on: ACHN renal
RXF 393 renal = tested on: RXF 393 renal
MOLT-4 leukemia = tested on: MOLT-4 leukemia
IGROV1 ovarian = tested on: IGROV1 ovarian
NCI-H226 lung = tested on: NCI-H226 lung
BT-549 breast = tested on: BT-549 breast
SR leukemia = tested on: SR leukemia
A549 NSCLC = tested on: A549 NSCLC
RPMI-8226 leukemia = tested on: RPMI-8226 leukemia
SK-OV-3 ovarian = tested on: SK-OV-3 ovarian
NCI-H522 lung = tested on: NCI-H522 lung
SF-539 CNS = tested on: SF-539 CNS
HCT-116 colon = tested on: HCT-116 colon
HL-60(TB) leukemia = tested on: HL-60(TB) leukemia
NCI-H460 NSCLC = tested on: NCI-H460 NSCLC
DU-145 prostate = tested on: DU-145 prostate
PC-3 prostate = tested on: PC-3 prostate
OVCAR-3 ovarian = tested on: OVCAR-3 ovarian
SK-MEL-5 melanoma = tested on: SK-MEL-5 melanoma
UO-31 renal = tested on: UO-31 renal
A498 renal = tested on: A498 renal
UACC-257 melanoma = tested on: UACC-257 melanoma
M14 melanoma = tested on: M14 melanoma
MALME-3M melanoma = tested on: MALME-3M melanoma
SNB-19 CNS = tested on: SNB-19 CNS
HOP-92 NSCLC = tested on: HOP-92 NSCLC
MDA-MB-468 breast = tested on: MDA-MB-468 breast

Work on `COc1cc2c(Nc3ccc(Br)cc3F)ncnc2cc1OCC1CCN(C)CC1` yielded a GI50 (CAKI-1 renal) of 1230 nM, a TGI (CAKI-1 renal) of 2550 nM and a GI50 (T-47D breast) of 1330 nM. For the same compound, the TGI (T-47D breast) was 8790 nM, the GI50 (SN12C renal) was 2330 nM and the TGI (SN12C renal) was 16300 nM. For the same compound, the GI50 (SF-295 CNS) was 66600 nM, the TGI (SF-295 CNS) was over 100000 nM and the GI50 (HT29 colon) was 1780 nM. It also gave a TGI (HT29 colon) of 3610 nM, a GI50 (OVCAR-5 ovarian) of 2190 nM and a TGI (OVCAR-5 ovarian) of 11500 nM. For the same compound, the GI50 (OVCAR-4 ovarian) was 2300 nM, the TGI (OVCAR-4 ovarian) was 10200 nM and the GI50 (EKVX NSCLC) was 943 nM. The TGI (EKVX NSCLC) was 8630 nM, the GI50 (HCC-2998 colon) was 2390 nM and the TGI (HCC-2998 colon) was 5590 nM. For the same compound, the GI50 (TK-10 renal) was 1980 nM, the TGI (TK-10 renal) was 5100 nM and the GI50 (U251 glioblastoma) was 4460 nM. It also gave a TGI (U251 glioblastoma) of 17100 nM, a GI50 (KM12 colon) of 5900 nM and a TGI (KM12 colon) of 17400 nM. It also gave a GI50 (786-0 renal) of 1370 nM, a TGI (786-0 renal) of 2870 nM and a GI50 (HCT-15 colon) of 1980 nM. It also gave a TGI (HCT-15 colon) of 5360 nM, a GI50 (SNB-75 CNS) of 1570 nM and a TGI (SNB-75 CNS) of 3610 nM. The GI50 (OVCAR-8 ovarian) was 2540 nM, the TGI (OVCAR-8 ovarian) was 7230 nM and the GI50 (NCI/ADR-RES ovarian) was 2240 nM. The TGI (NCI/ADR-RES ovarian) was 6430 nM, the GI50 (MDA-MB-231 breast) was 1870 nM and the TGI (MDA-MB-231 breast) was 4300 nM. For the same compound, the GI50 (COLO 205 colon) was 2350 nM, the TGI (COLO 205 colon) was 6010 nM and the GI50 (MCF7 breast) was 2780 nM. The TGI (MCF7 breast) was 11100 nM, the GI50 (HS 578T breast) was 1520 nM and the TGI (HS 578T breast) was 2920 nM. For the same compound, the GI50 (HOP-62 NSCLC) was 2770 nM, the TGI (HOP-62 NSCLC) was 10400 nM and the GI50 (SK-MEL-28 melanoma) was 1710 nM. It also gave a TGI (SK-MEL-28 melanoma) of 3110 nM, a GI50 (LOX IMVI melanoma) of 2040 nM and a TGI (LOX IMVI melanoma) of 4240 nM. For the same compound, the GI50 (NCI-H23 lung) was 3380 nM, the TGI (NCI-H23 lung) was 15500 nM and the GI50 (NCI-H322M lung) was 298 nM. For the same compound, the TGI (NCI-H322M lung) was 900 nM, the GI50 (MDA-MB-435 melanoma) was 2590 nM and the TGI (MDA-MB-435 melanoma) was 4420 nM. The GI50 (SF-268 CNS) was 2460 nM, the TGI (SF-268 CNS) was 7050 nM and the GI50 (UACC-62 melanoma) was 1830 nM. The TGI (UACC-62 melanoma) was 3370 nM, the GI50 (ACHN renal) was 553 nM and the TGI (ACHN renal) was 3910 nM. For the same compound, the GI50 (RXF 393 renal) was 836 nM, the TGI (RXF 393 renal) was 2480 nM and the GI50 (MOLT-4 leukemia) was 1920 nM. It also gave a TGI (MOLT-4 leukemia) of 5650 nM, a GI50 (IGROV1 ovarian) of 262 nM and a TGI (IGROV1 ovarian) of 1040 nM. The GI50 (NCI-H226 lung) was 1300 nM, the TGI (NCI-H226 lung) was 5470 nM and the GI50 (BT-549 breast) was 2240 nM. For the same compound, the TGI (BT-549 breast) was 5060 nM, the GI50 (SR leukemia) was 3540 nM and the TGI (SR leukemia) was 5010 nM. The GI50 (A549 NSCLC) was 2070 nM, the TGI (A549 NSCLC) was 11200 nM and the GI50 (RPMI-8226 leukemia) was 2840 nM. It also gave a TGI (RPMI-8226 leukemia) of 6120 nM, a GI50 (SK-OV-3 ovarian) of 1930 nM and a TGI (SK-OV-3 ovarian) of 6310 nM. For the same compound, the GI50 (NCI-H522 lung) was 616 nM, the TGI (NCI-H522 lung) was 2530 nM and the GI50 (SF-539 CNS) was 2640 nM. It also gave a TGI (SF-539 CNS) of 8640 nM, a GI50 (HCT-116 colon) of 3100 nM and a TGI (HCT-116 colon) of 10700 nM. The GI50 (HL-60(TB) leukemia) was 2090 nM, the TGI (HL-60(TB) leukemia) was 3530 nM and the GI50 (NCI-H460 NSCLC) was 4660 nM. For the same compound, the TGI (NCI-H460 NSCLC) was 16000 nM, the GI50 (DU-145 prostate) was 2220 nM and the TGI (DU-145 prostate) was 12400 nM. For the same compound, the GI50 (PC-3 prostate) was 3460 nM, the TGI (PC-3 prostate) was 18400 nM and the GI50 (OVCAR-3 ovarian) was 1050 nM. For the same compound, the TGI (OVCAR-3 ovarian) was 4520 nM, the GI50 (SK-MEL-5 melanoma) was 1540 nM and the TGI (SK-MEL-5 melanoma) was 3020 nM. For the same compound, the GI50 (UO-31 renal) was 1160 nM, the TGI (UO-31 renal) was 2460 nM and the GI50 (A498 renal) was 1440 nM. It also gave a TGI (A498 renal) of 3340 nM, a GI50 (UACC-257 melanoma) of 1900 nM and a TGI (UACC-257 melanoma) of 3320 nM. It also gave a GI50 (M14 melanoma) of 1980 nM, a TGI (M14 melanoma) of 3420 nM and a GI50 (MALME-3M melanoma) of 1770 nM. It also gave a TGI (MALME-3M melanoma) of 3160 nM, a GI50 (SNB-19 CNS) of 10600 nM and a TGI (SNB-19 CNS) of over 100000 nM. The GI50 (HOP-92 NSCLC) was 1370 nM, the TGI (HOP-92 NSCLC) was 2840 nM and the GI50 (MDA-MB-468 breast) was 551 nM. For the same compound, the TGI (MDA-MB-468 breast) was 1920 nM.
